From PubChem BioAssay (NCI)
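Cultured in 96-well plates, cells were exposed to test compound for 48 hours across five concentrations. Here, GI50 denotes the concentration required for 50% inhibition of growth. TGI: concentration producing complete growth inhibition.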

Legend:
Assay in all cases: growth of human tumour cells (NCI), 48 h
[1] = tested on: SNB-19 CNS
[2] = tested on: UO-31 renal
[3] = tested on: NCI-H522 lung
[4] = tested on: SW-620 colon
[5] = tested on: NCI-H226 lung
[6] = tested on: SF-295 CNS
[7] = tested on: HCC-2998 colon
[8] = tested on: NCI/ADR-RES ovarian
[9] = tested on: HCT-15 colon
[10] = tested on: A549 NSCLC

SMILES | GI50 [1] [µM] | TGI [1] [µM] | GI50 [2] [µM] | TGI [2] [µM] | GI50 [3] [µM] | TGI [3] [µM] | GI50 [4] [µM] | TGI [4] [µM] | TGI [5] [µM] | GI50 [6] [µM] | TGI [6] [µM] | GI50 [7] [µM] | TGI [7] [µM] | GI50 [8] [µM] | TGI [8] [µM] | GI50 [9] [µM] | TGI [9] [µM] | GI50 [10] [µM] | TGI [10] [µM] | GI50 [5] [µM]
COc1cc(C2NC(=O)c3ccccc3N2)ccc1OCCCCCOc1c(OC)cc(C2=NOC(c3cc(OC)c(OC)c(OC)c3)C2)cc1OC (centres undefined) | 16.6 | > 88.8 | 15.1 | > 100 | 17.1 | > 56.2 | 14.7 | > 100 | > 100 | 2.54 | > 100 | 1.14 | 37.8 | 12.7 | > 51.8 | 3.34 | > 100 | 2.25 | 97.7 | 
O=c1[nH]ncc(Br)c1Br | 5.32 | 18.9 | 1.87 | 4.51 | 1.71 | 3.25 | 1.7 | 3.07 | 5.96 | 8.8 | 22.5 | 1.89 | 3.38 | 2.91 | 7.69 | 1.72 | 3.3 | 13.3 | 29.1 | 2.19
CS(=O)(=O)c1ccc([C@H]2O[C@@H](CO)C[C@]2(O)c2ccc(S(C)(=O)=O)cc2)cc1 | > 100 | > 100 | > 100 | > 100 | > 100 | > 100 | > 100 | > 100 | > 100 | > 100 | > 100 | > 100 | > 100 | > 100 | > 100 | > 100 | > 100 | > 100 | > 100 | > 100
Nc1nc(Cl)c2ncn(Cc3ccc(C45CC6CC(CC(C6)C4)C5)c(O)c3)c2n1 | 6.53 | 22.8 | 12.7 | 28.1 | 6.01 | 23.8 | 2.95 | 13.3 | 42.9 | 3.29 | 17.4 | 2.26 | 8.34 | 3.15 | 16.4 | 8.78 | 25.5 | 1.29 | 3.17 | 12
CN1CCN(C(=O)OCc2nc3c(N4CCOCC4)nc(Cl)nc3n2C)CC1 | 1.65 | 3.62 | 1.07 | 2.29 | 1.1 | 2.74 | 0.484 | 1.83 | 5.41 | 8.35 | 20.7 | 1.62 | 3.15 | 2.46 | 9.59 | 0.905 | 2.79 | 1.81 | 5.25 | 1.96
O=C1c2cc(Cl)ccc2S(=O)(=O)c2c(NCCCNCCO)nc3ccccc3c21 | 3.77 | 14.4 | 1.13 | 2.36 | 0.323 | 1.42 | 0.444 | 1.71 | 22.7 | 3.26 | 12.4 | 4.31 | 15.1 | 3.05 | 10.8 | 0.926 | 2.35 | 3.22 | 12.3 | 10.1
